# Earlier results as cited in patent publication US20170128595A1, “MICROBIAL GROWTH INDICATING MEDICAL DEVICES” (Indicator Systems International, Inc., priority 2013, published 2017).
# Details: fluorescein; ionization equilibrium gives pH-dependent absorption and emission over pH 5 to 9
substance,measurement,value
fluorescein,pKa,6.4
